According to patent publication US20260125360A1, “HERBICIDAL IMIDAZOLE COMPOUNDS” (SYNGENTA CROP PROTECTION AG, priority 2022, published 2026):

Key:
Type in all cases: in vivo
Details in all cases: 250 g/ha, evaluated after 13 days
[1] = test system: Echinochloa crus-galli (ECHCG); test: Pre-emergence herbicide glasshouse test
In short: (§1)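 Species sown in standard soil and sprayed 1 day (pre-emergence) or 8 days (post-emergence) after sowing, at 250 g/ha unless noted, in acetone/water (50:50) with 0.5% Tween 20. Glasshouse at 24/16 °C day/night, 14 h light, 65% humidity. Percentage damage scored after 13 days on a 1–5 scale (5=81–100%, 1=0–20%).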

[2] = test system: Ipomoea hederacea (IPOHE); test: Pre-emergence herbicide glasshouse test
In short: as §1

[3] = test system: Amaranthus retoflexus (AMARE); test: Pre-emergence herbicide glasshouse test
In short: as §1

[4] = test system: Amaranthus palmeri (AMAPA); test: Pre-emergence herbicide glasshouse test
In short: as §1

[5] = test system: Echinochloa crus-galli (ECHCG); test: Post-emergence herbicide glasshouse test
In short: as §1

[6] = test system: Ipomoea hederacea (IPOHE); test: Post-emergence herbicide glasshouse test
In short: as §1

[7] = test system: Amaranthus retoflexus (AMARE); test: Post-emergence herbicide glasshouse test
In short: as §1

[8] = test system: Amaranthus palmeri (AMAPA); test: Post-emergence herbicide glasshouse test
In short: as §1

SMILES	percentage damage caused to the plant, ECHCG (five-point scale) [1]	percentage damage caused to the plant, IPOHE (five-point scale) [2]	percentage damage caused to the plant, AMARE (five-point scale) [3]	percentage damage caused to the plant, AMAPA (five-point scale) [4]	percentage damage caused to the plant, ECHCG (five-point scale) [5]	percentage damage caused to the plant, IPOHE (five-point scale) [6]	percentage damage caused to the plant, AMARE (five-point scale) [7]	percentage damage caused to the plant, AMAPA (five-point scale) [8]
Fc1cc(-c2nc(C(F)(F)F)cn2Cc2ccc(Cl)s2)cnc1Cl [Compound 1.174]	1 (1=0-20%)	1 (1=0-20%)	5 (5=81-100%)	5 (5=81-100%)	1 (1=0-20%)	2 (2=21-40%)	5 (5=81-100%)	5 (5=81-100%)
CS(=O)(=O)c1ccc(-c2nc(C(F)(F)F)cn2Cc2ccc(Cl)s2)cc1 [Compound 1.175]	2 (2=21-40%)	1 (1=0-20%)	5 (5=81-100%)	4 (4=61-80%)	1 (1=0-20%)	2 (2=21-40%)	4 (4=61-80%)	4 (4=61-80%)
Cc1noc(Cn2cc(C(F)(F)F)nc2-c2ccc(S(C)(=O)=O)cc2)n1 [Compound 1.176]	1 (1=0-20%)	1 (1=0-20%)	1 (1=0-20%)	1 (1=0-20%)	1 (1=0-20%)	1 (1=0-20%)	1 (1=0-20%)	1 (1=0-20%)
Cc1cc(Cn2cc(C(F)(F)F)nc2-c2ccc(S(C)(=O)=O)cc2)no1 [Compound 1.177]	5 (5=81-100%)	5 (5=81-100%)	5 (5=81-100%)	5 (5=81-100%)	3 (3=41-60%)	5 (5=81-100%)	5 (5=81-100%)	5 (5=81-100%)
Cc1nnc(Cn2cc(C(F)(F)F)nc2-c2ccc([S+](C)[O-])cc2)s1 (centres unmarked) [Compound 1.178]	1 (1=0-20%)	4 (4=61-80%)	3 (3=41-60%)	3 (3=41-60%)	1 (1=0-20%)	1 (1=0-20%)	1 (1=0-20%)	1 (1=0-20%)
CCON=Cc1cn(Cc2cc(C)on2)c(-c2cnc(Cl)c(F)c2)n1 [Compound 1.179]	1 (1=0-20%)	1 (1=0-20%)	4 (4=61-80%)	5 (5=81-100%)	1 (1=0-20%)	1 (1=0-20%)	3 (3=41-60%)	3 (3=41-60%)
CON=Cc1cn(Cc2ncn(C)n2)c(-c2cnc(Cl)c(F)c2)n1 [Compound 1.180]	1 (1=0-20%)	5 (5=81-100%)	5 (5=81-100%)	4 (4=61-80%)	1 (1=0-20%)	4 (4=61-80%)	1 (1=0-20%)	2 (2=21-40%)
Cc1nnc(Cn2cc(C(F)(F)F)nc2-c2cnc(Cl)c(F)c2)o1 [Compound 1.181]	3 (3=41-60%)	4 (4=61-80%)	5 (5=81-100%)	5 (5=81-100%)	1 (1=0-20%)	1 (1=0-20%)	4 (4=61-80%)	4 (4=61-80%)
Cn1cnc(Cn2cc(C#N)nc2-c2cnc(Cl)c(F)c2)n1 [Compound 1.182]	4 (4=61-80%)	5 (5=81-100%)	5 (5=81-100%)	5 (5=81-100%)	3 (3=41-60%)	3 (3=41-60%)	5 (5=81-100%)	4 (4=61-80%)
Cc1nnc(Cn2cc(C(F)(F)F)nc2-c2ccc(F)c(F)c2)o1 [Compound 1.183]	3 (3=41-60%)	5 (5=81-100%)	5 (5=81-100%)	5 (5=81-100%)	2 (2=21-40%)	4 (4=61-80%)	5 (5=81-100%)	5 (5=81-100%)
Cn1cnc(Cn2cc(C#N)nc2-c2ccc(F)c(F)c2)n1 [Compound 1.184]	5 (5=81-100%)	5 (5=81-100%)	5 (5=81-100%)	5 (5=81-100%)	4 (4=61-80%)	5 (5=81-100%)	5 (5=81-100%)	5 (5=81-100%)
Cc1cc(Cn2cc(C#N)nc2-c2cnc(Cl)c(F)c2)no1 [Compound 1.185]	3 (3=41-60%)	4 (4=61-80%)	5 (5=81-100%)	5 (5=81-100%)	1 (1=0-20%)	3 (3=41-60%)	4 (4=61-80%)	4 (4=61-80%)
Cc1cc(Cn2cc(C(F)(F)F)nc2-c2ccc(F)c(F)c2)no1 [Compound 1.192]	5 (5=81-100%)	5 (5=81-100%)	5 (5=81-100%)	5 (5=81-100%)	5 (5=81-100%)	5 (5=81-100%)	5 (5=81-100%)	5 (5=81-100%)
